Patent US20130267422A1, “COMPOSITION FOR CONTROLLING PLANT DISEASES COMPRISING 3-PENTANOL AS EFFECTIVE COMPONENT” (Korea Research Institute Of Bioscience And Biotechnology, priority 2010, published 2013)

How the values were obtained:
Format in all cases: in vivo
[1] = system: aphids; assay: Aphid infestation of cucumber, naturally occurring aphids; settings: 1 mM soil drench, 34 dps
Text: FIGS. 8A and 8B illustrate that 3-pentanol confers induced resistance against aphids in cucumber: (a), Nymph number; (b), Adult number. Bars represent the mean±SE (sample size, n=12 replications per treatment).
Cucumber plants (Cucumis sativus L. cv. backdadagi) were cultivated in an open field under natural conditions. For greenhouse experiments, seeds were directly planted in pots containing soilless medium (Punong Co. Ltd., Gyeongju, Korea) in a 24 hole plug tray under greenhouse condition. The germinated seedlings were transplanted into large pots (diameter=30 cm; height=30 cm). Chemical treatments to elicit induced resistance in cucumber were carried out. Briefly, the 14 day old cucumber seedlings were treated by direct drench application of 50 mL solution of 1 mM 3-pentanol. 3-pentanol bought from Sigma-Aldrich Co. was dissolved in distilled water before application. Treatments with 1 mM benzothiadiazole (BTH) and water were used as positive and negative controls, respectively.
For pathogen challenge, a culture of the compatible bacterial pathogen Pseudomonas syringae pv. lachrymans (OD600=1 in 10 mM MgCl2) was spray-challenged on cucumber leaves until run-off at 7 days after the drench application of chemicals to roots at 21 days after seeding. The severity of symptoms was scored from 0 to 5 as follows: 0, no symptoms; 1, less than 20% diseased area; 2, 21%-40% diseased area; 3, 41%-60% diseased area; 4, 61%-80% diseased area; and 5, more than 81% diseased area of the entire leaf Bacterial pathogens were cultured overnight at 28° C. in King's B medium supplemented with the appropriate antibiotics (100 μg/mL). As a positive control, roots were treated with 1 mM BTH. […] To investigate whether the 3-pentanol elicited plant immunity to aphid feeding, numbers of naturally occurring aphids (in 2011, Daejeon, Korea) were counted. Application of 1 mM BTH was used as a positive control. The total numbers of nymph and adult aphids were counted at 34 days after seeding. The experiments were repeated with similar results.

[2] = system: Xanthomonas axonopodis pv. vesicatoria; assay: ISR under field conditions, bacterial spot disease in pepper; settings: for disease level (ISR against bacterial spot disease): 1 mM 3-pentanol; for resistance to the disease (bacterial spot): additional 3-pentanol treatment
Method: FIGS. 2A and 2B illustrate the effect of 3-pentanol on plant ISR against Xanthomonas axonopodis pv. vesicatoria under field conditions at different time points. The ISR effect of 3-pentanol was measured on Day 10, Day 20, Day 30, and Day 40 after seedling transplantation. The positive control plant was treated with 0.5 mM BTH. The disease occurrence rate (i.e., 0 to 5) as an indicator of ISR was measured on Day 10 following inoculation of pathogen.
3-Pentanol, having shown ISR properties, was used for subsequent direct applications. Pepper seeds were purchased from Heungnong Jongmyo (breed; Bugang). The surface of the seeds were sterilized for 5 minutes using 1% sodium hypochlorite and rinsed with sterilized water for 5 min. The surface sterilized seeds were allowed to germinate on MS medium containing an appropriate amount of moisture. Germinated seeds, without m having any contamination, were planted in a 50-hole pot (28×54×6 cm) filled with soil for horticultural use (Punong Co., Ltd, Korea) and cultivated for six weeks in a greenhouse at 20 to 30° C. Six weeks after seeding and upon growth of seven to eight main leaves, 1 mM 3-pentanol was diluted to a volume of about 3 liters with sterilized water and poured into the 50-hole pot dish. In order to have effective soaking of the immersion solution in the soil and roots of the plant, immersion was carried out over about 24 hours. After 24-hour immersion, the young pepper plants were transplanted into a field (i.e., Chungyong-Li, Gaduk-Myon, Chungwon-Gun, Chungchongbuk-Do, South Korea 36°32′27.26″ North and 127°33′07.81″ East). The burrow to burrow distance was 1.2 m and the field was about 12.5 m to ensure the treatment areas were evenly mixed with each other. Twenty days after the final transplantation into the field, a secondary application of 1 mM 3-pentanol diluted to a volume of about 3 liters with sterilized water, was applied as 100 mL irrigation treatments for each. The test method used was as follows: after final transplantation, using a syringe, Xanthomonas axonopodis pv. vesicatoria at the concentration of 10^7 CFU/ml was exposed to the backside of the pepper leaf at intervals of 10 days until Day 40. Responses were then examined seven to ten days after exposure. The bacterial inoculant has been cultured for 48 hours at 30° C. after adding antibiotics of Rifampicin (100 μg/ml) to a solid medium. The control group received zero treatment and the treatment group received four applications. The disease occurrence rate was determined based on comparison and observation at 10 day intervals until Day 40. The severity of symptoms was scored as in Yang et al. 2009, Plant Pathol. […]

[3] = system: bacterial leaf spot disease; assay: ISR against naturally occurring bacterial leaf spot disease under field conditions; settings: pepper, three months after final transplantation
Text: (§1) FIGS. 5A through 5C illustrate the effect of 3-pentanol on ISR against naturally occurring plant diseases under field conditions. FIG. 5A illustrates the effect of 3-pentanol on cucumber mosaic virus (CMV) disease three months after the treatment, FIG. 5B illustrates the symptoms of the viral disease (the photographic image was taken three months after the naturally occurring plant disease), and FIG. 5C illustrates the effect of 3-pentanol on bacterial leaf spot disease three months after treatment. The positive control group plant was treated with 0.5 mM BTH. The disease occurrence rate (i.e., 0 to 5) as an indicator of ISR was measured three months after transplantation (i.e., 0: no symptoms; 5: severe symptoms of necrosis).
(§2) 3-Pentanol, having shown ISR properties, was used for subsequent direct applications. Pepper seeds were purchased from Heungnong Jongmyo (breed; Bugang). The surface of the seeds were sterilized for 5 minutes using 1% sodium hypochlorite and rinsed with sterilized water for 5 min. The surface sterilized seeds were allowed to germinate on MS medium containing an appropriate amount of moisture. […] The disease occurrence rate was determined based on comparison and observation at 10 day intervals until Day 40. The severity of symptoms was scored as in Yang et al. 2009, Plant Pathol. […]

[4] = system: PR1 and PR4 genes; assay: Expression analysis of resistance genes by qRT-PCR; settings: pepper leaf, six hours after inoculation of pathogen
Method: FIGS. 3A through 3D illustrate expression of the defense-related genes PR1 and PR4 induced by 3-pentanol following inoculation of pathogen to pepper. Expression of the defense signal transduction related genes PR1 and PR4 at 10 dpt (FIG. 3A), 20 dpt (FIG. 3B), 30 dpt (FIG. 3C), and 40 dpt (FIG. 3D) was determined by quantitative RT-PCR. Relative RNA levels were calibrated and normalized to the level of CaActin mRNA. The samples were collected 6 hours post inoculation of pathogen. The positive control group plant was treated with BTH.
Expression of PR1 and PR4 genes related to the disease resistance of pepper were examined based on quantitative real time-polymerase chain reaction (qRT-PCR). The sequences of the primers used are as follows.
Following bacterial exposure to the backside of a pepper leaf, the pepper leaf was cut using scissors at 0 hours and at 6 hours and stored in liquid nitrogen. RNA isolation began with the pepper leaf being ground in liquid nitrogen using a mortar and pestle, The RNA was then extracted from the pepper leaf by using TRIzol Reagent (Invitrogen Life Technologies). […]

[5] = system: Xanthomonas axonopodis pv. vesicatoria; assay: ISR screening under greenhouse conditions, bacterial spot disease in pepper; settings: irrigation, 1 mM, second screening
Method: FIGS. 1A and 1B illustrate the effect of the eighteen different volatile organic compounds from Bacillus amyloliquefaciens IN937a strain on plant ISR against Xanthomonas axonopodis pv. vesicatoria under greenhouse conditions. […] The positive control plant was treated with 0.5 mM benzothiadiazole (BTH). The disease occurrence rate (i.e., 0 to 5) as an indicator of ISR was measured on Day 7 following inoculation of pathogen (i.e., 0: no symptoms; 5: severe symptoms of necrosis).
In order to determine the ISR properties of the previously selected, eighteen different volatile organic compounds from the Bacillus amyloliquefaciens IN937a strain, young pepper was grown for 3 to 4 weeks after seeding and irrigated, with the compounds present, in concentrations of 10 μM or 100 nM in 50 ml volumes. One week following irrigation treatment, the plant was exposed to Xanthomonas axonopodis pv. vesicatoria at a concentration of 10^7 CFU/ml. Symptoms of disease were observed five to seven days later, and the level of disease was measured based on a scale from 0 to 5, as described above. In a second screening, four volatile substances, selected from the first screening, were incorporated into the irrigation treatment at concentrations of 1 mM, 10 μM, 0.1 μM, and 1 nM. After exposure to pathogen, symptoms of disease were observed.

[6] = system: cucumber mosaic virus; assay: ISR against naturally occurring cucumber mosaic virus disease under field conditions; settings: pepper, three months after final transplantation, versus control group
Text: as §1, §2

[7] = system: Pseudomonas syringae pv. lachrymans; assay: Angular leaf spot disease severity in cucumber; settings: 1 mM drench, 28 days post seeding, 7 days after spray-challenge
Method: FIG. 7 illustrates induction of systemic resistance by 1 mM 3-pentanol against Pseudomonas syringae pv. lachrymans. The severity of symptoms was scored from 0 to 5 as follows: 0, no symptoms; 1, yellowish color; 2, chlorosis only; 3, partial necrosis and chlorosis; 4, necrosis of the inoculated area and expanded chlorosis; and 5, complete necrosis of the inoculated area. Disease severity of cucumber treated with 3-pentanol was assessed 7 days after infection with P. syringae pv. lachrymans. Water and 1 mM BTH were used as negative and positive controls, respectively. […] Error bars indicate the standard error (n=16). […]
For pathogen challenge, a culture of the compatible bacterial pathogen Pseudomonas syringae pv. lachrymans (OD600=1 in 10 mM MgCl2) was spray-challenged on cucumber leaves until run-off at 7 days after the drench application of chemicals to roots at 21 days after seeding. The severity of symptoms was scored from 0 to 5 as follows: 0, no symptoms; 1, less than 20% diseased area; 2, 21%-40% diseased area; 3, 41%-60% diseased area; 4, 61%-80% diseased area; and 5, more than 81% diseased area of the entire leaf Bacterial pathogens were cultured overnight at 28° C. in King's B medium supplemented with the appropriate antibiotics (100 μg/mL). […] The total numbers of nymph and adult aphids were counted at 34 days after seeding. […]

Row | Structure (SMILES) | number of adult aphids [1] | number of aphid nymphs [1] | disease level (ISR against bacterial spot disease) ([2]; ten days after final transplantation) | disease level (ISR against bacterial spot disease) ([2]; twenty days after final transplantation) | resistance to the disease (bacterial spot) ([2]; forty days after final transplantation) | resistance to the disease (bacterial spot) ([2]; thirty days after final transplantation) | resistance to bacterial leaf spot disease [3] | expression level of PR gene ([4]; Day 10 after final transplantation) | expression of PR gene ([4]; from Day 20 after transplantation) | resistance to bacterial spot disease in pepper, outcome of screening [5] | resistance to cucumber mosaic virus [6] | less symptom severity compared to water control [7]
1 | CCC(O)CC [3-pentanol] | 1.0 per leaf | 21 per leaf | no difference compared to the control group | less than the control group | higher resistance to the disease compared to the control group | higher resistance to the disease compared to the control group | not different among three treatment groups | lower expression level of PR gene compared to the control group | the same or higher than that of the control group | finally selected | significantly increased | 24%
2 | c1ccc2snnc2c1 [BTH, benzothiadiazole, reference compound] | 0.4 per leaf | 20 per leaf | – | – | – | – | not different among three treatment groups | – | – | – | almost the same | –
